Measured values taken from patent US20240165209A1, “PLACENTAL ALKALINE PHOSPHATASE FOR REDUCING THE LOSS OF RED BLOOD CELLS, WHITE BLOOD CELLS, AND PLATELETS IN CHEMOTHERAPY TREATED CANCER PATIENTS” (ZOLTAN LABORATORIES, LLC, priority 2021, published 2024).

System: bone marrow MSCs
Assay: DNA synthesis ([3H]thymidine incorporation) in MSCs
Type: cell-based, human
Details: 20 hours, no PLAP
From the text: For the experiment, bone marrow aspirates were taken from normal human adult donors after informed consent. For the preparation of bone marrow MSCs, essentially a widely used technique was used as described earlier by others [Pittenger, M. F., Mackay, A. M., Beck, S. C., et al. (1999) Multilineage potential of adult human mesenchymal stem cells. Science 284, 143-147]. Briefly, nucleated cells were isolated with a pre-prepared commercial density gradient (Lymphoprep, Nycomed, Pharma, Oslo, Norway) and re-suspended in Dulbecco's modified Eagle's medium (DMEM) (GIBCO, Grand Island, NY) supplemented with 10% fetal calf serum (FCS), 50 U/ml of penicillin, and 50 μg/ml of streptomycin (GIBCO). All nucleated cells were plated in 25-cm^2 flasks (BD Falcon, Bedford, MA) at 37° C. in humidified atmosphere containing 5% CO2. After 24 hours, non-adherent cells were removed and cryopreserved in liquid nitrogen until use. The remaining adherent cells were thoroughly washed with Hanks balanced salt solution (HBSS) (GIBCO). Fresh complete culture medium was added and replaced every 3 or 4 days (twice a week). When cells grew to about 80% confluence, they were suspended and harvested by incubating with a ready-made solution containing 0.25% trypsin and 1 mM EDTA (Sigma-Aldrich, St. Louis, MO) for 5 minutes at 37° C.; this cell suspension is designated as passage 1. These cells were further expanded with 1:3-1:5 splitting in 175-cm^2 flasks (BD Falcon). For the determination of DNA synthesis, cells were divided into 12-well plates in the complete medium and let the cells grow to about 60% confluence. After changing the spent medium for fresh complete medium (i.e., containing 10% fetal calf serum), cells were treated for 20 hours with 20-100 μM ATP and/or 200 nM PLAP as well as 50-200 μM Cyp in the absence or presence of 200 nM PLAP. For labeling newly formed DNA, cells received 1,130,000 d.p.m. [^3H] thymidine for the last 4 hours of the treatment period. DNA synthesis was determined as described earlier [She, Q.-B., Mukherjee, J. J., Huang, J.-S., Crilly, K. S. and Kiss, Z. (2000) Growth factor-like effects of placental alkaline phosphatase in human fetus and mouse embryo fibroblasts. FEBS Lett. 469, 163-167]. The data is expressed as d.p.m. [^3H] thymidine incorporated into DNA/well (n=3).

SMILES: O.O=P1(N(CCCl)CCCl)NCCCO1 (centres unmarked) [Cyp, 2-[Bis (2-chloroethyl)amino] tetrahydro-2H-1,3,2-oxazaphosphorine 2-oxide monohydrate]
- d.p.m. [^3H] thymidine incorporated into DNA/well (Cyp 50 μM): 51,684 ± 2.772 d.p.m.
- d.p.m. [^3H] thymidine incorporated into DNA/well (Cyp 200 μM): 32,536 ± 3,280 d.p.m.
